We go through ten compounds from US11065304B2, “Peptide pharmaceuticals for insulin resistance” (MEDERIS DIABETES, LLC, priority 2012, dated 2021).

By EC50 is commonly meant the midpoint of the concentration-response curve. Read a low EC50 as higher potency in that assay.

For series [1] the following is noted: in water; cited from earlier work.
Series [2] addresses GLP-1 R (Homo sapiens, UniProt P43220). The series can be described thus: DiscoveRx LeadHunter cellular assay, cAMP stimulation, GLP-1 receptor. Format: cell-based. The method, then:
(§1) § means superagonist A further series of cellular assays were carried out using standard cellular assays (DiscoveRx, LeadHunter assays) using readout of cAMP stimulation or arrestin activation. Compounds were weighed precisely in an amount of approximately 1 mg and shipped to DiscoveRx for dilution and assay.

In series [3] the target is T1, glucagon R (Homo sapiens, UniProt P47871).
T1 construct: host or cells: CHO cells
T1 sequence (P47871 26-477): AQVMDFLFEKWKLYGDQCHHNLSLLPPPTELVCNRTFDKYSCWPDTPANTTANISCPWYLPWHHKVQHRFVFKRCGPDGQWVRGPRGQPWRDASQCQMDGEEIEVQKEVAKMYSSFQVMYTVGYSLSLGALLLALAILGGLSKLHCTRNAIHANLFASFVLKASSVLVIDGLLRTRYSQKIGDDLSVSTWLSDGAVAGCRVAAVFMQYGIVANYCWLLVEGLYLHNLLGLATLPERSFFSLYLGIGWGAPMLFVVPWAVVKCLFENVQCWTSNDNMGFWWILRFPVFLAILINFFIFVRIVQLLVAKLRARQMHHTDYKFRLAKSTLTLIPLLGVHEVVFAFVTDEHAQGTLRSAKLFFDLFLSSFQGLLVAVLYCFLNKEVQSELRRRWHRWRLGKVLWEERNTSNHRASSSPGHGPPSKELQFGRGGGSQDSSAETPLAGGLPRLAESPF
The series can be described thus: DiscoveRx LeadHunter cellular assay, cAMP stimulation, glucagon receptor. Format: cell-based. The method, then: as §1

Series [4] concerns db/db mice. Nature of the series: In vivo assay in db/db mice (blood glucose, body weight, food consumption). Conditions: for db/db mice - Mean Blood Glucose, 10 hr: 10 hr after first dose; for db/db mice - Mean Blood Glucose, 24 hr: 24 hr after first dose; for db/db mice - Mean Blood Glucose, 48 hr: 48 hr after first dose. The method, then: The 60 female db/db B6BKS (D) Leprdb/J (strain 000697) mice for this study were approximately 8 to 9 weeks old at arrival (Jackson Laboratory, Bar Harbor, Me.). […] One group of 8 female mice served as the vehicle control and received the vehicle, 0.2% BSA in saline, pH 7.4. One additional group of 8 female mice received the positive control article, liraglutide, at a dose level of 50 nmoles/kg. The test articles, vehicle, and positive control article were administered on Day 1, at approximately 0, 7, and 24 hours during the study via subcutaneous injection at a dose volume of 6 mL/kg.
Clinical observations were conducted at receipt, prior to randomization, and daily from Days 1 to 5. Body weights were measured and recorded at receipt, prior to randomization, and daily from Days 1 to 5. Food consumption was measured and recorded daily from Days 1 to 5. Blood samples for glucose analysis were collected pretest (Day −3) and at 0, 1, 2, 4, 8, 10, 24, 48, 72, and 96 hours following the first dose on Day 1. At study termination all animals were euthanized and the carcasses were discarded without further evaluation.

Sequence of GLP-1 R (P43220 24-463): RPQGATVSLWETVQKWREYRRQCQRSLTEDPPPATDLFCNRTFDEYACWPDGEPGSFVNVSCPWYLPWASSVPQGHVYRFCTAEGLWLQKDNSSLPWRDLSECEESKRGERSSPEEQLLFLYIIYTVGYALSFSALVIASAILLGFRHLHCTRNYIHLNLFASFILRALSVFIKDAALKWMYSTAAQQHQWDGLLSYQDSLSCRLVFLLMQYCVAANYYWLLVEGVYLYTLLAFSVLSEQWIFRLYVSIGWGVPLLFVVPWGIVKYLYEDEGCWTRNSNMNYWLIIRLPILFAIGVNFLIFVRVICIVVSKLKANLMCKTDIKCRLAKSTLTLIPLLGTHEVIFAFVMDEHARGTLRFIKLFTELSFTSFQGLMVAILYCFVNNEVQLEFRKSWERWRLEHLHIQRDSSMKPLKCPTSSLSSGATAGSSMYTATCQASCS

As to `CCCCCCCCCCO[C@@H]1O[C@H](CO)[C@@H](O[C@H]2O[C@H](CO)[C@@H](O)[C@H](O)[C@H]2O)[C@H](O)[C@H]1O` [Decyl maltoside], the “CMC (critical micelle concentration)” value in series [1] was 1.8 mM.

In the case of `CCCCCCCCCCO[C@@H]1O[C@H](C(=O)NCCCC[C@H](NC(=O)[C@@H](NC(=O)[C@H](Cc2ccccc2)NC(=O)[C@H](CCC(=O)O)NC(=O)[C@@H]2CCCCNC(=O)CC[C@H](NC(=O)[C@H](CC(=O)O)NC(=O)[C@H](CC(C)C)NC(=O)[C@H](Cc3ccc(O)cc3)NC(=O)[C@H](CCCCN)NC(=O)[C@H](CO)NC(=O)[C@H](Cc3ccc(O)cc3)NC(=O)[C@H](CC(=O)O)NC(=O)[C@H](CO)NC(=O)[C@@H](NC(=O)[C@H](Cc3ccccc3)NC(=O)[C@@H](NC(=O)CNC(=O)[C@H](CCC(N)=O)NC(=O)C(C)(C)NC(=O)[C@@H](N)Cc3c[nH]cn3)[C@@H](C)O)[C@@H](C)O)C(=O)N[C@@H](CCC(N)=O)C(=O)N[C@@H](C)C(=O)N[C@@H](C)C(=O)N2)[C@@H](C)CC)C(=O)N[C@@H](Cc2c[nH]c3ccccc23)C(=O)N[C@@H](CC(C)C)C(=O)N[C@@H](CC(C)C)C(=O)N[C@@H](CCC(N)=O)C(=O)N[C@H](C(N)=O)[C@@H](C)O)[C@@H](O)[C@H](O)[C@H]1O` [EU-A1167, His1-Aib2-Gln3-Gly4-Thr5-Phe6-Thr7-Ser8-Asp9-Tyr10-Ser11-Lys12-Tyr13-Leu14-Asp15-Glu*16-Gln17 Ala18-Ala19-Lys*20-Glu21-Phe22-Ile23-Lys(N-omega(1-decylbeta-D-glucuronyl))24-Trp25-Leu26-Leu27-Gln28-Thr29-NH2], the 50% effective concentration (EC50) in series [2] was 13 pM. This compound registered an EC50 in series [3] of 19 pM. Moreover, in series [4] (250 nmole/kg s.c.), the “db/db mice - Mean Blood Glucose, 0 hr” value was 379 mg/dL; the “db/db mice - Mean Blood Glucose, 10 hr” value amounted to 171 mg/dL; the “db/db mice - Mean Blood Glucose, 24 hr” value turned out to be 117 mg/dL; the “db/db mice - Mean Blood Glucose, 48 hr” value turned out to be 113 mg/dL.

`CCCCCCCCO[C@@H]1O[C@H](CO)[C@@H](O[C@H]2O[C@H](CO)[C@@H](O)[C@H](O)[C@H]2O)[C@H](O)[C@H]1O` [Octyl maltoside]: in series [1], the “CMC (critical micelle concentration)” value is reported as 19.5 mM.

`CCCCCCCCCCCCCCO[C@@H]1O[C@H](CO)[C@@H](O[C@@H]2O[C@@H](CO)[C@H](O)[C@@H](O)[C@@H]2O)[C@H](O)[C@H]1O` (stereo in doubt) [Tetradecyl maltoside]: the “CMC (critical micelle concentration)” value in series [1] was 0.01 mM.

Sucrose dodecanoate: the “CMC (critical micelle concentration)” value in series [1] is 0.3 mM.

Regarding `CCCCCCCCCCCCO[C@@H]1O[C@H](CO[C@H]2O[C@H](C(=O)NCCCC[C@H](NC(=O)[C@@H](NC(=O)[C@H](Cc3ccccc3)NC(=O)[C@H](CCC(=O)O)NC(=O)[C@@H]3CCCCNC(=O)CC[C@H](NC(=O)[C@H](CC(=O)O)NC(=O)[C@H](CC(C)C)NC(=O)[C@H](Cc4ccc(O)cc4)NC(=O)[C@H](CCCCN)NC(=O)[C@H](CO)NC(=O)[C@H](Cc4ccc(O)cc4)NC(=O)[C@H](CC(=O)O)NC(=O)[C@H](CO)NC(=O)[C@@H](NC(=O)[C@H](Cc4ccccc4)NC(=O)[C@@H](NC(=O)CNC(=O)[C@H](CCC(N)=O)NC(=O)C(C)(C)NC(=O)[C@@H](N)Cc4c[nH]cn4)[C@@H](C)O)[C@@H](C)O)C(=O)N[C@@H](CCC(N)=O)C(=O)N[C@@H](C)C(=O)N[C@@H](C)C(=O)N3)[C@@H](C)CC)C(=O)N[C@@H](Cc3c[nH]c4ccccc34)C(=O)N[C@@H](CC(C)C)C(=O)N[C@@H](CC(C)C)C(=O)N[C@@H](CCC(N)=O)C(=O)N[C@H](C(N)=O)[C@@H](C)O)[C@H](O)[C@H](O)[C@H]2O)[C@@H](O)[C@H](O)[C@H]1O` [EU-A1023, His1-Aib2-Gln3-Gly4-Thr5-Phe6-Thr7-Ser8-Asp9-Tyr10-Ser11-Lys12-Tyr13-Leu14-Asp15-Glu*16-Gln17 Ala18-Ala19-Lys*20-Glu21-Phe22-Ile23-Lys(N-omega(1-dodecylbeta-D-melibiouronyl))24-Trp25-Leu26-Leu27-Gln28-Thr29-NH2], in series [4] (50 nmole/kg s.c.), the “db/db mice - Mean Blood Glucose, 0 hr” value was 507 mg/dL; the “db/db mice - Mean Blood Glucose, 10 hr” value is 310 mg/dL; the “db/db mice - Mean Blood Glucose, 24 hr” value worked out at 355 mg/dL; the “db/db mice - Mean Blood Glucose, 48 hr” value came to 375 mg/dL. Besides, in series [4] (250 nmole/kg s.c.), the “db/db mice - Mean Blood Glucose, 0 hr” value was 508 mg/dL; the “db/db mice - Mean Blood Glucose, 10 hr” value was determined as 264 mg/dL; the “db/db mice - Mean Blood Glucose, 24 hr” value amounted to 194 mg/dL; the “db/db mice - Mean Blood Glucose, 48 hr” value is reported as 375 mg/dL.

`CCCCCCCCCCCCO[C@@H]1O[C@H](CO)[C@@H](O[C@H]2O[C@H](CO)[C@@H](O)[C@H](O)[C@H]2O)[C@H](O)[C@H]1O` [Dodecyl-β-D-maltoside]: the “CMC (critical micelle concentration)” value in series [1] is given as 0.17 mM.

In turn, `CCCCCCCCO[C@@H]1O[C@H](C(=O)NCCCC[C@H](NC(=O)[C@@H](NC(=O)[C@H](Cc2ccccc2)NC(=O)[C@H](CCC(=O)O)NC(=O)[C@@H]2CCCCNC(=O)CC[C@H](NC(=O)[C@H](CC(=O)O)NC(=O)[C@H](CC(C)C)NC(=O)[C@H](Cc3ccc(O)cc3)NC(=O)[C@H](CCCCN)NC(=O)[C@H](CO)NC(=O)[C@H](Cc3ccc(O)cc3)NC(=O)[C@H](CC(=O)O)NC(=O)[C@H](CO)NC(=O)[C@@H](NC(=O)[C@H](Cc3ccccc3)NC(=O)[C@@H](NC(=O)CNC(=O)[C@H](CCC(N)=O)NC(=O)C(C)(C)NC(=O)[C@@H](N)Cc3c[nH]cn3)[C@@H](C)O)[C@@H](C)O)C(=O)N[C@@H](CCC(N)=O)C(=O)N[C@@H](C)C(=O)N[C@@H](C)C(=O)N2)[C@@H](C)CC)C(=O)N[C@@H](Cc2c[nH]c3ccccc23)C(=O)N[C@@H](CC(C)C)C(=O)N[C@@H](CC(C)C)C(=O)N[C@@H](CCC(N)=O)C(=O)N[C@H](C(N)=O)[C@@H](C)O)[C@@H](O)[C@H](O)[C@H]1O` [EU-A992, His1-Aib2-Gln3-Gly4-Thr5-Phe6-Thr7-Ser8-Asp9-Tyr10-Ser11-Lys12-Tyr13-Leu14-Asp15-Glu*16-Gln17 Ala18-Ala19-Lys*20-Glu21-Phe22-Ile23-Lys(N-omega(1-octylbeta-D-glucuronyl))24-Trp25-Leu26-Leu27-Gln28-Thr29-NH2] yielded an EC50 in series [3] of 19 pM. Further, in series [4] (250 nmole/kg s.c.), the “db/db mice - Mean Blood Glucose, 0 hr” value is on record as 405 mg/dL; the “db/db mice - Mean Blood Glucose, 10 hr” value was determined as 104 mg/dL; the “db/db mice - Mean Blood Glucose, 24 hr” value worked out at 112 mg/dL; the “db/db mice - Mean Blood Glucose, 48 hr” value turned out to be 130 mg/dL.

The compound `CCCCCCCCCCCO[C@@H]1O[C@H](C(=O)NCCCC[C@H](NC(=O)[C@@H](NC(=O)[C@H](Cc2ccccc2)NC(=O)[C@H](CCC(=O)O)NC(=O)[C@@H]2CCCCNC(=O)CC[C@H](NC(=O)[C@H](CC(=O)O)NC(=O)[C@H](CC(C)C)NC(=O)[C@H](Cc3ccc(O)cc3)NC(=O)[C@H](CCCCN)NC(=O)[C@H](CO)NC(=O)[C@H](Cc3ccc(O)cc3)NC(=O)[C@H](CC(=O)O)NC(=O)[C@H](CO)NC(=O)[C@@H](NC(=O)[C@H](Cc3ccccc3)NC(=O)[C@@H](NC(=O)CNC(=O)[C@H](CCC(N)=O)NC(=O)C(C)(C)NC(=O)[C@@H](N)Cc3c[nH]cn3)[C@@H](C)O)[C@@H](C)O)C(=O)N[C@@H](CCC(N)=O)C(=O)N[C@@H](C)C(=O)N[C@@H](C)C(=O)N2)[C@@H](C)CC)C(=O)N[C@@H](Cc2c[nH]c3ccccc23)C(=O)N[C@@H](CC(C)C)C(=O)N[C@@H](CC(C)C)C(=O)N[C@@H](CCC(N)=O)C(=O)N[C@H](C(N)=O)[C@@H](C)O)[C@@H](O)[C@H](O)[C@H]1O` [EU-A1168, His1-Aib2-Gln3-Gly4-Thr5-Phe6-Thr7-Ser8-Asp9-Tyr10-Ser11-Lys12-Tyr13-Leu14-Asp15-Glu*16-Gln17 Ala18-Ala19-Lys*20-Glu21-Phe22-Ile23-Lys(N-omega(1-undecylbeta-D-glucuronyl))24-Trp25-Leu26-Leu27-Gln28-Thr29-NH2] returned a 50% effective concentration (EC50) in series [2] of 70 pM. The same compound yielded an EC50 in series [3] of 140 pM. In series [4] (250 nmole/kg s.c.), the “db/db mice - Mean Blood Glucose, 0 hr” value amounted to 380 mg/dL; the “db/db mice - Mean Blood Glucose, 10 hr” value came out at 133 mg/dL; the “db/db mice - Mean Blood Glucose, 24 hr” value turned out to be 169 mg/dL; the “db/db mice - Mean Blood Glucose, 48 hr” value was found to be 164 mg/dL.

On to `CCCCCCCCCCCCCO[C@@H]1O[C@H](CO)[C@@H](OC2OC(CO)C(O)C(O)C2O)[C@H](O)[C@H]1O` (stereo in doubt) [Tridecyl maltoside], for which, in series [1], the “CMC (critical micelle concentration)” value is given as 0.03 mM.
